Assay results: patent publication US8709391B2, “Family of pain producing substances and methods to produce novel analgesic drugs” (Board of Regents of the University of Texas System, priority 2008, dated 2014)

Columns and labels:
TG neurons from WT mice = test: [Ca2+]i levels in cultured TG neurons from WT mice; format: cell-based, mouse; details: for [Ca2+]i response evoked in TG neurons / responding neurons / capsaicin-sensitive neurons: 100 μM
Experimental: (§1) FIGS. 1A-H depict that endogenous TRPV1 ligands are generated upon heat insult of mouse skin. The hypothesis of heat-evoked generation of endogenous TRPV1 ligand(s) was evaluated by harvesting mouse skin and then collecting superfusate samples after 20 min exposure to basal (37° C.=“control” skin) or noxious (48° C.=“heated” skin) temperatures. Aliquots of the two superfusates were applied, at room temperature, to cultured trigeminal ganglia (TG) neurons from wild type (WT) or TRPV1 knock out (TRPV1 KO) mice for measurement of evoked increases in intracellular calcium levels [Ca^2+]i. […] Conversely, there were no changes in [Ca^2+]i after application of supernatants from heated skin to either TRPV1 KO cultures (FIG. 1B; mustard oil served as a positive control) or to WT neurons insensitive to capsaicin (data not shown).
(§2) The pharmacological activity of synthetic 9-HODE and related compounds on sensory neurons was characterized. […] Another major metabolic pathway of linoleic acid leads to formation of 13-HODE and its metabolite, 13-oxoODE. The relative efficacy of these four compounds for evoked [Ca^2+]i levels was evident when tested in cultured neurons from WT mice (FIG. 3G) and in TRPV1-expressing CHO cells (FIG. 3H).
(§3) The epoxy metabolite, 9,10 EpOME (also known as leukotoxin), is highly elevated in burn patients and is implicated in shock in these patients.
(§4) FIG. 12 depicts the effect of lipids extracted from burned human skin samples against cultured trigeminal sensory neurons from control (wild type, “WT”) mice and from TRPV1 knock-out mice. Samples of burned human skin and control (non-burned) human skin from patients undergoing treatment in a hospital burn ward were obtained. The lipids from the skin samples were extracted by incubation with acetonitrile and the samples dried under nitrogen gas. The samples were tested against cultured trigeminal sensory neurons from control (wild type, “WT”) mice and from TRPV1 knock-out mice using real time imaging of calcium accumulation (fura-2 method). Extracts from human control (non burned) skin had no effect on activating neurons from either control (WT) or TRPV1 knockout (TRPV1 KO) mice. […] Thus, similar to the oxidized linoleic acid metabolites, the extracts from burned human skin activate TRPV1 and some other channels.

rats [1] = test: intrathecal application, tactile allodynia in rats; format: in vivo, rat
Text: FIGS. 9A-D depict that spinal injection (intrathecal) of capsaicin or 9-HODE into the spinal cord space results in tactile allodynia. This effect is mediated by activation of TRPV1 since it is blocked by a TRPV1 antagonist (AMG 9810). […] The results were compared with the results obtained with the positive control capsaicin. […] Comparison of the peak effect evoked by both capsaicin and 9-HODE is shown in FIGS. 9C-D. The effects were remarkably similar.

cultured rat TG neurons = test: CGRP release from cultured rat TG neurons evoked by 9-HODE; format: cell-based
TRPV1 KO mice = test: hindpaw intraplantar (ipl) injection, thermal allodynia, TRPV1 KO mice; format: in vivo, mouse
[2] = system: TG neurons from TRPV1 KO mice; test: [Ca2+]i levels in cultured TG neurons from TRPV1 KO mice; format: cell-based, mouse
Experimental: as §1, §2, §3, §4

WT mice = test: hindpaw intraplantar (ipl) injection, thermal allodynia, WT mice; format: in vivo, mouse
rat TG neurons [3] = test: patch clamp electrophysiology, heat (48° C.)-evoked inward current (Iheat) in rat TG neurons; format: cell-based; details: pretreatment, NDGA 30 uM, miconazole 100 uM
Experimental: FIGS. 5A-D depict that interventions reducing production or action of linoleic acid oxidation products results in decreased thermal pain. Whether heat-evoked activation of rat TG neurons is inhibited by interventions directed against linoleic acid metabolites was evaluated. […] Using patch clamp electrophysiology, the local application of a heat step (48° C.) produced a strong inward current (Iheat) in TG neurons. Pretreatment with NDGA produced ˜50% reduction (p<0.05) in Iheat. (FIG. 5B). In a similar patch clamp electrophysiology set up, pretreatment with miconazole (100 uM) produced more than 75% reduction (p<0.001) in Iheat (FIG. 5C). Whether intracellular immunoneutralization against 9-HODE and 13-HODE alters the responsiveness of sensory neurons to noxious heat was evaluated next. A solution containing both anti-9-HODE and anti-13-HODE antibodies (concentrations of 0.03-0.06 ug and 0.006-0.012 ug/patch pipette respectively) was delivered intracellularly via dialysis for 5 min prior to the application of a heat step (48° C.).

rats [4] = test: thermal nociception in rats after intraplantar hindpaw (ipl) injection; format: in vivo, rat; details: 100 ug/paw ipl, 15 minute, ipsilateral hindpaw
Experimental: The intraplantar hindpaw (ipl) injection of NDGA, miconazole, and a combination of anti 9-HODE and anti-13-HODE was compared to morphine sulfate, a gold standard analgesic. […] The studies were performed in a separate groups of animals for each condition and by observers blinded to treatment allocation (all compounds at 100 ug/paw and antibodies were each 25 ug/paw) (FIG. 10).

TRPV4 = target: T1, TRPV4 (Homo sapiens, UniProt Q9HBA0); test: [Ca2+]i in CHO cells expressing TRPV4; format: cell-based; details: screening against other heat-sensitive TRP channels
T1 construct: expressed in transfected cells; host or cells: CHO cells
Text: as §3
FIG. 13 depicts the effect of lipids, extracted from burned human skin samples, and then applied to CHO cells that expressed either TRPV1, TRPV2, TRPV3, TRPV4 or TRPA1, using real time calcium imaging. As shown, the extracts of the burned human skin activated TRPV1, TRPV3, TRPV4 and TRPA1, but not TRPV2.

rat TG neurons [5] = test: heat-evoked (48° C.) iCGRP release from rat TG neurons; format: cell-based; details: NDGA 10 uM, indomethacin 2 uM, I-RTX 200 nM
rat TG neurons [6] = test: activation of rat TG neurons by compound(s) released from heated skin, pretreatment with TRPV1 antagonist; format: cell-based; details: I-RTX 200 nM pretreatment; superfusates from skin exposed to 48° C.
Experimental: To further characterize the TRPV1 specificity of these endogenous heat-generated compound(s), the effect of pretreatment with the TRPV1 antagonist iodo-resiniferatoxin (I-RTX) on the activation of rat TG neurons was evaluated. […] Moreover, application of these compound(s) triggered prompt increases in [Ca]i in CHO cells expressing TRPV1, but not in negative control CHO cells that expressed a GFP construct (FIGS. 1E-F). Next, initial superfusion experiments in isolated mouse skin were expanded by collecting supernatant after exposure to various temperatures and evaluating the release of endogenous TRPV1 compound(s).

[7] = system: rat trigeminal sensory neurons; test: linoleic acid activation of rat trigeminal sensory neurons, intracellular calcium (Fura-2); format: cell-based; details: pretreatment; for inhibition of the formation of linoleic acid metabolites (neuron-activating compounds): concluded from the neuron activation test
Text: FIG. 14 depicts the effects of pretreatment with either cytochrome P450 inhibitors (NDGA, DPI, CO or ketoconazole, ODYA), nitric oxide synthase inhibitors (L-NAME, L-NNA), lipoxygenase inhibitors (BW-70C, PD, TEDC) or antioxidants (TROLOX, NAC, TEMPOL) versus negative controls (vehicle, argon) on the ability of linoleic acid to activate rat trigeminal sensory neurons as measured by real time levels of intracellular calcium (Fura-2, as indicated by the ratio of 340/380).

T1 sequence (Q9HBA0 whole entry, species assumed): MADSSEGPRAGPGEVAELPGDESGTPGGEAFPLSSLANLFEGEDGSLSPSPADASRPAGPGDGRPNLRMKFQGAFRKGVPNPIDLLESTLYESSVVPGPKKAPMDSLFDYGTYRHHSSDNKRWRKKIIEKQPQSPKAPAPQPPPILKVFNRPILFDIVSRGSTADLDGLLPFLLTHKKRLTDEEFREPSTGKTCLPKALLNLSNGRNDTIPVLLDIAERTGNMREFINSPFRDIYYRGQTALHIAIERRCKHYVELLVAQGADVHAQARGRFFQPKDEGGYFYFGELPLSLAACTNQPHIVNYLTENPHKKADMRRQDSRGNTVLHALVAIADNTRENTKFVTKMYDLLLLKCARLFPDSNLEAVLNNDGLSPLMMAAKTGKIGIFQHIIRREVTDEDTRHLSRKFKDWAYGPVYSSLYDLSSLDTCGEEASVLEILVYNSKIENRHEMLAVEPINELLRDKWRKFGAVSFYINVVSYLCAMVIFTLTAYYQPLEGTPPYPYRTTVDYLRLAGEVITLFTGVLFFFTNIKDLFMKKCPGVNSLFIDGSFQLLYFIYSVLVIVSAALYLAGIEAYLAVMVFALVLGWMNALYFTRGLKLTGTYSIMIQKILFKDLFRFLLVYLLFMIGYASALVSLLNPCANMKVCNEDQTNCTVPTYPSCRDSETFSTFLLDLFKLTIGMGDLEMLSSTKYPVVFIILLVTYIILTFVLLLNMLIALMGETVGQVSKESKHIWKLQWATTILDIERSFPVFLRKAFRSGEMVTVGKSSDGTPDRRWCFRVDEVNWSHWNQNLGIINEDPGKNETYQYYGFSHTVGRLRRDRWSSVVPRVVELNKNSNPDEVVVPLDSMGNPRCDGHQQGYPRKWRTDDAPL

SMILES: CCCCC/C=C\C=C\C(O)CCCCCCCC(=O)O (stereo not shown) [9-HODE, 9-hydroxyoctadecadienoic acid]
- [Ca2+]i response evoked in TG neurons (TG neurons from WT mice): robust response
- responding neurons / capsaicin-sensitive neurons (TG neurons from WT mice): 75/75
- tactile allodynia evoked by intrathecal application (rats [1]; 5 ug intrathecal): evoked tactile allodynia that was of similar magnitude and duration to that of capsaicin
- concentration at which effects on CGRP release are evident (cultured rat TG neurons): 10 nM
- EC50 (cultured rat TG neurons; read-out: EC50 of increase in CGRP release): ~300 nM
- thermal allodynia after ipl injection (TRPV1 KO mice; blinded observers): not in TRPV1 KO mice
- magnitude of [Ca2+]i accumulation and its time course compared to WT neurons [2]: greatly reduced
- responding neurons / tested neurons [2]: 3/66
- tested neurons with a slight response [2]: 4%
- thermal allodynia after ipl injection (WT mice; blinded observers): significantly greater thermal allodynia

SMILES: CCCCC/C=C\C=C\C(=O)CCCCCCCC(=O)O [9-oxoODE, (10E,12Z)-9-oxooctadeca-10,12-dienoic acid]
- [Ca2+]i levels after application (TG neurons from WT mice; concentration not given): triggered increased [Ca^2+]i levels
- [Ca2+]i levels after application ([2]; concentration not given): not in neurons from TRPV1 KO mice

SMILES: Clc1ccc(COC(Cn2ccnc2)c2ccc(Cl)cc2Cl)c(Cl)c1 (stereo not shown) [miconazole]
- reduction in Iheat (rat TG neurons [3]): more than 75%
- thermal antinociception (rats [4]): thermal antinociception far beyond that of the vehicle or morphine injected rats

SMILES: CCCCCC=CCC(O)C(O)CCCCCCCC(=O)O (stereo not shown) [9,10-DiHOME, 9(10)-dihydroxy-octadec-12-enoic acid]
- TRPV4 agonist activity (TRPV4): TRPV4 agonist

SMILES: COc1ccc2c(c1)c(CC(=O)O)c(C)n2C(=O)c1ccc(Cl)cc1 [indomethacin]
- reversal of heat-evoked iCGRP release by pretreatment (rat TG neurons [5]): not

SMILES: C=C(C)[C@]12C[C@@H](C)[C@@]34O[C@](Cc5ccccc5)(O[C@@H]1[C@@H]3C=C(COC(=O)Cc1cc(I)c(O)c(OC)c1)C[C@]1(O)C(=O)C(C)=C[C@@H]41)O2 [I-RTX, iodo-resiniferatoxin]
- reversal of heat-evoked iCGRP release by pretreatment (rat TG neurons [5]): partially reversed
- block of activation of neurons by compound(s) released from heated skin (rat TG neurons [6]): completely blocked

SMILES: C#CCCCCCCCCCCCCCCCC(=O)O [ODYA, 17-Octadecynoic acid]
- inhibition of the formation of linoleic acid metabolites (neuron-activating compounds) [7]: does not

SMILES: CC(C)(C)c1ccc(/C=C/C(=O)Nc2ccc3c(c2)OCCO3)cc1 [AMG 9810]
- reversal of 9-HODE-evoked tactile allodynia (rats [1]; AMG 9810 50 ug, 9-HODE 5 ug intrathecal): completely reversible
- reversal of capsaicin-evoked tactile allodynia (rats [1]; AMG 9810 50 ug, capsaicin 5 ug intrathecal): completely reversible
- effect alone on mechanical withdrawal thresholds (rats [1]; antagonist alone, intrathecal): Neither the vehicle nor AMG 9810 alone had any effect

SMILES: CCCCC/C=C\CC1OC1CCCCCCCC(=O)O (stereo not shown) [9,10 EpOME, (12Z)-9,10-epoxyoctadecenoic acid]
- [Ca2+]i response evoked in TG neurons (TG neurons from WT mice): evoked calcium accumulation only in capsaicin-sensitive neurons
- responding neurons / capsaicin-sensitive neurons (TG neurons from WT mice): 58/58
- thermal allodynia after ipl injection (TRPV1 KO mice; 50 μg/ipl): absent
- responding neurons / tested neurons [2]: 0/58
- thermal allodynia after ipl injection (WT mice; 50 μg/ipl): evoked thermal allodynia

SMILES: CC(=O)N1CCN(c2ccc(OCC3COC(Cn4ccnc4)(c4ccc(Cl)cc4Cl)O3)cc2)CC1 (stereo not shown) [ketoconazole]
- block of the ability of linoleic acid to activate pain neurons ([7]; Fura-2 ratio 340/380): completely blocked
- inhibition of the formation of linoleic acid metabolites (neuron-activating compounds) [7]: inhibits the formation of linoleic acid metabolites

SMILES: COc1cc(CNC(=O)CCCC/C=C/C(C)C)ccc1O [capsaicin]
- duration of tactile allodynia post injection (rats [1]; 5 ug intrathecal): 1 h
- tactile allodynia evoked by intrathecal application (rats [1]; 5 ug intrathecal): evoked tactile allodynia

SMILES: CC(Cc1ccc(O)c(O)c1)C(C)Cc1ccc(O)c(O)c1 (stereo not shown) [NDGA, Nordihydroguaiaretic Acid]
- reduction in Iheat (rat TG neurons [3]): ~50%
- reversal of heat-evoked iCGRP release by pretreatment (rat TG neurons [5]): partially reversed
- thermal antinociception (rats [4]): thermal antinociception far beyond that of the vehicle or morphine injected rats
